In the experiment the target is human DNA (cytosine-5)-methyltransferase I (DNMT1), Δ501DNMT1 (Homo sapiens, UniProt P26358). It counts as biochemical.

One compound from publication PMC2854261 (Analytical biochemistry, 2010) can be followed below.

Chain of human DNA (cytosine-5)-methyltransferase I (DNMT1), Δ501DNMT1 (P26358 502-1616, stated change not applied): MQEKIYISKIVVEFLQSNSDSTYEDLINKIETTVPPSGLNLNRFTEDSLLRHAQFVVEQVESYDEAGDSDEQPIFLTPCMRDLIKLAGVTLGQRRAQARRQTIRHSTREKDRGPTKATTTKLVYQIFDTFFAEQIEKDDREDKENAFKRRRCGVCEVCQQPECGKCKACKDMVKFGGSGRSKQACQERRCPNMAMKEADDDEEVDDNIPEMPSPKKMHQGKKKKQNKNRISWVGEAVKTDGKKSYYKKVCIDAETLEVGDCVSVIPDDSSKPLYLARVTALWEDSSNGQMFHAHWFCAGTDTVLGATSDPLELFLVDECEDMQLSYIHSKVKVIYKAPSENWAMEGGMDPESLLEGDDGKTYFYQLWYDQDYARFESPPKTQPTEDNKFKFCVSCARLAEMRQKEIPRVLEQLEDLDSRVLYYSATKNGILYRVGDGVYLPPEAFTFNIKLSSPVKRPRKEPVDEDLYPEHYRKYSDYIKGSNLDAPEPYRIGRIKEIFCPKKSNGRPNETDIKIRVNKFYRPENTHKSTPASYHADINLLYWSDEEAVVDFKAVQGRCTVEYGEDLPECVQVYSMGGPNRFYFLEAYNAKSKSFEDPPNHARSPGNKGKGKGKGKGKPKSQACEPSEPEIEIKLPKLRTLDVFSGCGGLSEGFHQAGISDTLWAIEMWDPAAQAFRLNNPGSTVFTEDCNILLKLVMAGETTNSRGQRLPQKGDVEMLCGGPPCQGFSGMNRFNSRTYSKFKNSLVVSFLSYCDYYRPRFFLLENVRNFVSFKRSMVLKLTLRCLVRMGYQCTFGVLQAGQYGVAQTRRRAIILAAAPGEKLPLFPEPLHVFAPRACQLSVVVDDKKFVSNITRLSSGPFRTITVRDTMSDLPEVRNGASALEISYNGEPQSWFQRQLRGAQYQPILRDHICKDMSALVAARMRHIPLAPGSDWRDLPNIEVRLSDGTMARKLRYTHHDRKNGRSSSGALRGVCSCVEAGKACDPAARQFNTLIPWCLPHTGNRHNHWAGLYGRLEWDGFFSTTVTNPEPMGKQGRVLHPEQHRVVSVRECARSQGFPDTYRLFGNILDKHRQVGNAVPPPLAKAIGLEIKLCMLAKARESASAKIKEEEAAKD

A word on the IC50: it is the point on the concentration scale where inhibition reaches its midpoint. Low readings indicate higher potency, high ones lower potency. For the compound `Nc1ncnc2c1ncn2[C@@H]1O[C@H](CO)[C@@H](O)[C@H]1O` [adenosine], half-maximal inhibition (IC50) was put at 3 mM.
